Test results as given in US12427143B2, “Pharmaceutical composition for treating or preventing aging or age-related diseases” (INU RESEARCH & BUSINESS FOUNDATION, priority 2021, dated 2025).
Where a chain is given by its changes, count along the chain named.

Tests used:
senescent HDF [1] = assay: Mitochondrial mass by MitoTracker green flow cytometry; assay type: cell-based, human; conditions: HDF treated with compound
Description: (§1) FIG. 5 depicts the result of recovery of mitochondria based on the increased production of ATP. (A and B) Flow cytometric analysis of mitochondrial ROS and mitochondrial mass analysis using Mito tracker Green and MitoSOX; (C and D) measurement of non-glycotic glycolysis level and glycotic glycolysis level; (E) flow cytometry analysis of autophagosome level using CYTO-ID Green assay.
(§2) For quantification of mitochondrial ROS, the cells were incubated in medium containing 5 μM MitoSOX (M36008; Life Technologies, Carlsbad, CA, USA) for 30 min at 37° C. For quantification of mitochondrial mass, the cells were incubated in medium containing 50 nM MitoTracker green (M22426; Life Technologies) for 30 min at 37° C. After staining, for the purpose of measuring mitochondrial membrane potential, cells were prepared for FACS analysis.
(§3) The capability of removing organelles having dysfunction in senescent cells is deteriorated. Recovery of autophagy prevents accumulation of dysfunctional mitochondria and resulting in signs of senescence recovery. Mitochondrial mass and autophagy were measured for identifying the function. Mitochondrial mass decreased in HDF treated with KB1541(FIG. 5B). Moreover, autophagy level increased in HDF treated with KB1541(FIG. 5C).

senescent HDF [2] = assay: Measurement of cellular ATP levels (oxphos and glycolysis portion); assay type: cell-based, human; conditions: versus senescent HDF
Description: Cells were incubated in medium with or without 20 μM oligomycin for 24 h and then lysed with lysis buffer. ATP content was measured using a ViaLight Plus Kit (LT07-221; Lonza, Basel, Switzerland) according to the manufacturer's instructions. DNA content was measured using AccuBlue broad range dsDNA quantitation kit (31007; Biotium, Fremont, CA, USA). For measurements of relative ATP content, the luminescence of each sample was normalized to the DNA content.
The inventors studied the changes in ATP production when assembling the ATP subunit based on the result of FIG. 4B. Oxphos portion was measured for identifying ATP resulting from oxidative phosphorylation in mitochondria cristae (FIG. 4C).
Moreover, glycolysis portion was measured for assessing the amount of ATP during glycolysis (FIG. 4D).

[3] = molecular target: T1, Myc-14-3-3 zeta/delta (S58A) / ATP synthase alpha and beta (Homo sapiens, UniProt P63104, S58A); assay: Co-immunoprecipitation of ATP synthase alpha and beta with Myc-14-3-3 zeta/delta(S58A); assay type: cell-based; conditions: HEK293T, performed in the same way (4 μM)
T1 construct: expressed in transfected cells; host or cells: HEK293T (CRL-11268; ATCC)
T1 sequence (P63104 1-245 S58A): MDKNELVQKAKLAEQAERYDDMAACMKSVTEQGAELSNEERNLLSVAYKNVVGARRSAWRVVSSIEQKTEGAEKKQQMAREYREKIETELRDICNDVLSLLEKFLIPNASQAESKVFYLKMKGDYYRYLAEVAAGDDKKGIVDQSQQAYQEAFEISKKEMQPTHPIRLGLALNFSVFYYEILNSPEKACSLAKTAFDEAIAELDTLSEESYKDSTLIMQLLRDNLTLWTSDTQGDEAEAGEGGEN
Description: (§4) pCMV-Myc-14-3-3 zeta/delta(WT) plasmid and pCMV-Myc-14-3-3 zeta/delta(S58A) plasmid were transfected with HEK293T(CRL-11268; ATCC). […] The treated cells were digested with 0.1% NP-40 cell lysis buffer to destroy cells, and IP (immunoprecipitation) of MIC60 subunit was performed using AccuNanoBeadm Streptavidin Magnetic Nanobeads (TA-1015-1; Bioneer, Daejeon, Korea). IP of 14-3-3 zeta/delta(WT) and 14-3-3 zeta/delta(S58A) were performed using anti-Myc tag antibody.
(§5) The PCR fragment of 14-3-3 zeta/delta (WT) and 14-3-3 zeta/delta (S58A) were separately cloned into pCMV-Myc-puromycin. HEK293T (CRL-11268; ATCC) were transfected with Lipofectaminem 2000 Transfection Reagent (11668-019; Thermo Scientific), Selection was carried out with puromycin 3 μg/ml.
(§6) Therefore, the 58th serine region of 14-3-3 zeta/delta was mutated to alanine to investigate its function. Myc-tag 14-3-3 zeta/delta(WT) vector and 14-3-3 zeta/delta(S58A) vector were transfected and overexpressed with HEK293T. Additionally, their interactions with endogenous ATP synthase alpha and beta were confirmed by IP (FIG. 4B).
(§7) As a result, ATP synthase alpha and beta proteins, which interacted with Myc-14-3-3 zeta/delta(WT) were increased KB1541 was treated to HEK293T at a concentration of 4 μM (FIG. 5B).

senescent HDF cells = assay: Compound screening: cell proliferation of senescent fibroblasts (GelGreen fluorescence); assay type: cell-based, human; conditions: 27 drugs at 4 μM, 12 days, senescent HDF 1,000 cells per well
Description: FIG. 1 depicts the results of potential target screening for recovering senescence. Each of compounds was treated to a 96 well plate seeded with 1000 senescent cells (4 μM). After incubation for 12 days, the cells were stained with Gel green solution (1:1,000 in D.W.). Cell number was determined via fluorescence measurement using fluorescence microplate reader (excitation/emission 485 nm/535 nm).
Senescent fibroblasts were grown in 96-well plates at a density of 1,000 cells per well. Components from the library were diluted to a final concentration of 4 μM and added to the wells every 4 days. 12 days after drug treatment, cells were washed twice with phosphate-buffered saline (PBS) and lysed in 50 μl of 0.2% SDS. The plates were incubated at 37° C. for 1 h. GelGreen® Nucleic Acid Gel Stain (150 μl) (1:1,000 in DW; 41005; Biotium, Fremont, CA, USA) was added to the wells. Cell number was determined by measuring fluorescence intensity with VICTOR Multilabel Plate Reader (2030-0050; PerkinElmer, Waltham, MA, USA). The mean and standard deviation from six replicates were determined for each of experimental groups.
Cellular senescence is characterized by cell cycle arrest, and the inventors identified a compound recovering cell cycle arrest with additional anti-senescence effects. […] Relative cell proliferation was measured in terms of the senescent HDF. […]

senescent HDF [4] = assay: Mitochondrial ROS by MitoSOX flow cytometry; assay type: cell-based, human; conditions: versus senescent HDF
Description: as §1, §2
Reactive oxygen species (ROS) was identified and measured, which damages homeostasis and metabolism of normal mitochondria.

[5] = molecular target: T2, Myc-14-3-3 zeta/delta(WT) / ATP synthase alpha and beta (Homo sapiens, UniProt P63104); assay: Co-immunoprecipitation of ATP synthase alpha and beta with Myc-14-3-3 zeta/delta(WT); assay type: cell-based; conditions: HEK293T, 4 μM
T2 construct: expressed in transfected cells; host or cells: HEK293T (CRL-11268; ATCC)
T2 sequence (P63104 1-245): T1 sequence (P63104 1-245 S58A) with A58S
Description: as §4, §5, §6, §7

[6] = tested on: senescent HDF mitochondria; assay: Transmission electron microscopy of mitochondrial cristae; assay type: cell-based, human
From the text: FIG. 6 depicts the result of mitochondria recovery induced by KB1541. (A) HDF mitochondria observed in transmission electron microscope 21 days after treated with KB1541. From left: Senescent (DMSO), Senescent (KB1541); (B) the length of cristae observed in transmission electron microscope.
The inventors studied level to cristae of mitochondria 12 days after senescent HDF treatment and identified senescence recovery. […] In graph where the images were quantified and represented, the length of cristae increased when treated with KB1541(FIG. 6B).

senescent HDF [7] = assay: Autophagy level (Cyto-ID flow cytometry); assay type: cell-based, human; conditions: HDF treated with compound
Description: as §1
Cells were incubated in medium containing 20 μM chloroquine (CQ; C6628, Sigma-Aldrich). At 24 h after incubation, cells were further stained with Cyto-ID staining solution and 50 nM LTDR (ENZ-51031-0050; ENZO, Lausen, Switzeland) for 30 min and prepared for FACS analysis. To measure background autofluorescence, cells were incubated in medium without dye. Fluorescence from Cyto-ID was normalized with fluorescence from LTDR. Autophagic flux was calculated using the following equation: ΔMFI Cyto-ID=MFI Cyto-ID (+CQ)/MFI Cyto-ID (−CQ).
as §3

senescent HDF [8] = assay: Seahorse analysis, ECAR (dependency of glycolysis); assay type: cell-based, human; conditions: HDF treated with compound, regardless of glucose
From the text: as §1
The XFe24 flux analyzer (Seahorse Bioscience XFe24 Instrument) was used according to the manufacturer's protocol. Briefly, 5×10^4 cells were distributed into each well of an XFe24 cell-culture plate from the XF24 FluxPak (100850-001; Seahorse Bioscience, North Billerica, MA, USA) and then cultured in a 5% CO2 incubator at a temperature of 37° C. for 16 h. Next, the medium was replaced by XF Assay medium (102365-100; Seahorse Bioscience), which lacked glucose, and the cells were then cultured for another 1 h in the same incubator. The extracellular acidification rate (ECAR) was measured using an XF Glycolysis Stress Test kit (102194-100; Seahorse Bioscience). ECAR was reported in mpH/min. As a metabolic shifter, aconitase inhibitor deferiprone (379409-5G; Sigma-Aldrich) was used.
Lastly, dependency of glycolysis was measured via ECAR.
Dependency of glycolysis in HDF treated with KB1541 decreased regardless of glucose like ATP study (FIGS. 5D and E).

SMILES: FC(F)(F)c1ccc(-c2nc3c(N4CCCC4)nc4ccccc4c3o2)cc1 [KB1541]
- Mitochondrial mass (senescent HDF [1]): decreased
- Glycolysis portion of ATP production (senescent HDF [2]): reduced compared to senescent HDF
- Oxphos portion of ATP production (senescent HDF [2]): higher than senescent HDF
- ATP synthase alpha and beta proteins interacting with Myc-14-3-3 zeta/delta (S58A) [3]: did not change significantly
- Relative cell proliferation, rank among screened compounds (senescent HDF cells): most effective compound on cell proliferation
- Reactive oxygen species (mitochondrial ROS) (senescent HDF [4]): decreased in half
- ATP synthase alpha and beta proteins interacting with Myc-14-3-3 zeta/delta(WT) [5]: increased
- Folds (cristae) of mitochondria in electron microscope images ([6]; 12 days after treatment): restored as well as increased
- Length of cristae ([6]; quantified TEM images): increased
- Autophagy level (senescent HDF [7]): increased
- Dependency of glycolysis (ECAR) (senescent HDF [8]): decreased
